For 10 compounds, Km, Ratio and K cat results are on record in ChEMBL document CHEMBL1145252, “Macrolactonization catalyzed by the terminal thioesterase domain of the nonribosomal peptide synthetase responsible for lichenysin biosynthesis” (Bioorg Med Chem Lett, 2005).

Assay [1] in a line: Michaelis-Menten constant for the hydrolysis of the lipopeptide SNAC by the licC thioesterase.
The nature of assay [2]: Michaelis-Menten constant for the cyclization of the lipopeptide SNAC by the licC thioesterase.
A short description of assay [3]: Michaelis-Menten constant for the cyclization of the lipopeptide SNAC by the licC thioesterase; nd = not determined.
Assay [4] is described as follows: Ratio of Michaelis-Menten constant to that of catalytic activity by the licC thioesterase.
The nature of assay [5]: Catalytic activity for the hydrolysis of the lipopeptide SNAC by the licC thioesterase.
Assay [6] can be described thus: Catalytic activity for the cyclization of the lipopeptide SNAC by the surfactin thioesterase.
A short description of assay [7]: Catalytic activity for the hydrolysis of the lipopeptide SNAC by the thioesterase.

Turning to `CC[C@H](C)[C@H](NC(=O)[C@@H](CC(C)C)NC(=O)[C@H](CC(=O)O)NC(=O)[C@@H](NC(=O)[C@@H](CC(C)C)NC(=O)[C@H](C)NC(=O)[C@H](CCC(N)=O)NC(=O)C[C@@H](C)O)C(C)C)C(=O)SCCNC(C)=O`, the Km was found to be 16.9 µM in assay [1] and 15.2 µM in assay [2].

`CC[C@H](C)[C@H](NC(=O)[C@@H](CC(C)C)NC(=O)[C@H](CC(=O)O)NC(=O)[C@H](C)NC(=O)[C@@H](CC(C)C)NC(=O)[C@H](CC(C)C)NC(=O)[C@H](CCC(N)=O)NC(=O)C[C@@H](C)O)C(=O)SCCNC(C)=O`: the values for the Km in assay [1] and in assay [2] were 8.05 µM and 9.35 µM, respectively.

On to `CC[C@H](C)[C@H](NC(=O)[C@@H](CC(C)C)NC(=O)[C@H](CC(=O)O)NC(=O)[C@@H](NC(=O)[C@@H](CC(C)C)NC(=O)[C@H](CC(C)C)NC(=O)[C@H](CCC(N)=O)NC(=O)C[C@H](C)O)C(C)C)C(=O)SCCNC(C)=O`, for which the Michaelis-Menten constant (Km) in assay [1] was 12 µM; in assay [3] it was “Not detected”. Moreover, the Ratio in assay [4] amounted to 19.5. For the same compound, in assay [5], the K cat came out at 3.89 s⁻¹.

Take `CC[C@H](C)[C@H](NC(=O)[C@@H](CC(C)C)NC(=O)[C@H](CC(=O)O)NC(=O)[C@@H](NC(=O)[C@@H](C)NC(=O)[C@H](CC(C)C)NC(=O)[C@H](CCC(N)=O)NC(=O)C[C@@H](C)O)C(C)C)C(=O)SCCNC(C)=O`: the Km in assay [1] was 4.86 µM; in assay [2], 5.1 µM.

As for `CC[C@H](C)[C@H](NC(=O)[C@@H](CC(C)C)NC(=O)[C@H](CC(=O)O)NC(=O)[C@@H](NC(=O)[C@@H](CC(C)C)NC(=O)[C@H](CC(C)C)NC(=O)[C@H](C)NC(=O)C[C@@H](C)O)C(C)C)C(=O)SCCNC(C)=O`, the figures for the Km in assay [1] and in assay [2] were 29 µM and 29.9 µM, respectively.

Consider `CC[C@H](C)[C@H](NC(=O)[C@@H](C)NC(=O)[C@H](CC(=O)O)NC(=O)[C@@H](NC(=O)[C@@H](CC(C)C)NC(=O)[C@H](CC(C)C)NC(=O)[C@H](CCC(N)=O)NC(=O)C[C@@H](C)O)C(C)C)C(=O)SCCNC(C)=O`, for which the Km in assay [1] turned out to be 263 µM; in assay [2], 257 µM.

Turning to `CC[C@H](C)[C@H](NC(=O)[C@@H](CC(C)C)NC(=O)[C@H](CC(=O)O)NC(=O)[C@@H](NC(=O)[C@@H](CC(C)C)NC(=O)[C@H](CC(C)C)NC(=O)[C@H](CCC(N)=O)NC(=O)CCN)C(C)C)C(=O)SCCNC(C)=O`, the Km in assay [1] is 9.41 µM; in assay [3], “Not detected”. In addition, the Ratio in assay [4] was determined as 17.3. Also, the K cat in assay [5] turned out to be 2.71 s⁻¹.

Turning to `CC[C@H](C)[C@H](NC(=O)[C@@H](CC(C)C)NC(=O)[C@H](C)NC(=O)[C@@H](NC(=O)[C@@H](CC(C)C)NC(=O)[C@H](CC(C)C)NC(=O)[C@H](CCC(N)=O)NC(=O)C[C@@H](C)O)C(C)C)C(=O)SCCNC(C)=O`, the Km in assay [1] was determined as 8.17 µM.

Turning to `CC[C@H](C)[C@H](NC(=O)[C@@H](CC(C)C)NC(=O)[C@H](CC(=O)O)NC(=O)[C@@H](NC(=O)[C@@H](CC(C)C)NC(=O)[C@H](CC(C)C)NC(=O)[C@H](CCC(N)=O)NC(=O)C[C@@H](C)O)C(C)C)C(=O)SCCNC(C)=O`, the figures for the Km in assay [1] and in assay [2] were 8.13 µM and 6.83 µM, respectively. The K cat turned out to be 1.77 s⁻¹ in assay [6] and 1.57 s⁻¹ in assay [7].

For `CC(=O)NCCSC(=O)[C@H](C)NC(=O)[C@@H](CC(C)C)NC(=O)[C@H](CC(=O)O)NC(=O)[C@@H](NC(=O)[C@@H](CC(C)C)NC(=O)[C@H](CC(C)C)NC(=O)[C@H](CCC(N)=O)NC(=O)C[C@@H](C)O)C(C)C`, the Km in assay [1] was determined as 191 µM.
